Values joined by “and” are separate entries in the source; they are usually repeats but may differ in a detail not shown here. Equal values may be shown once. Active and inactive are the calls of the source.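 How the source made its calls: active means compounds whose mean IC50 for blocking the worm GFP/RFP stress reporter is 5 µM or lower; inactive means the rest.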
tested on: C. elegans VP596 gst-4::GFP/RFP ratio, acrylamide-induced, 24 h; experiment: C. elegans gst-4 reporter suppression, analog potency – whole organism, GFP/RFP fluorescence ratio, round 3, SKN-1 inhibitor project, SAR follow-up (AID 743022)

| IC50 | SMILES |
| --- | --- |
| 17.9 µM (inactive) | COc1ccc(-c2csc(-c3ccccn3)n2)cc1 |
| 1.67 µM and 0.379 µM | Clc1ccc(-c2csc(-c3cccnc3)n2)cc1 |
| 2.5 µM | c1ccc(-c2csc(-c3ccncc3)n2)cc1 |
| 4.77 µM | Cc1sc(-c2ccncc2)nc1-c1ccc(F)cc1 |
| 3.18 µM | Fc1ccc(-c2csc(-c3ccccn3)n2)cc1 |
| 6.94 µM (inactive) | Fc1ccc(-c2csc(-c3cccnc3)n2)cc1 |
| 3.63 µM | Clc1ccccc1-c1csc(-c2ccncc2)n1 |
| 11.3 µM (inactive) | Cc1sc(-c2ccncc2)nc1-c1ccccc1 |
| 18.2 µM (inactive) | Cc1ccc(-c2csc(-c3ccncc3)n2)cc1 |
| > 64 µM (inactive) | c1ccc(-c2csc(C3CCNCC3)n2)cc1 |
| 26.2 µM (inactive) | COc1cccc(-c2csc(-c3ccncc3)n2)c1 |
| > 64 µM (inactive) | Clc1ccc(-c2csc(C3CCNCC3)n2)cc1 |
| > 64 µM (inactive) | Cc1sc(C2CCNCC2)nc1-c1ccccc1 |
| 1.1 µM | Clc1ccc(-c2csc(-c3ccncc3)n2)c(Cl)c1 |
| > 64 µM (inactive) | c1ccc(-c2nc(-c3cccnc3)cs2)cc1 |
| 13.5 µM (inactive) | N#Cc1ccc(-c2csc(-c3ccncc3)n2)cc1 |
| > 64 µM (inactive) | Cc1ccc(-c2nc(-c3ccncc3)sc2C)cc1 |
| 51.2 µM (inactive) | COc1ccc(-c2nc(-c3ccncc3)sc2C)cc1 |
| > 64 µM (inactive) | CC(C)(C)c1csc(-c2ccncc2)n1 |
| 29 µM (inactive) | c1ccc(-c2csc(-c3ccccn3)n2)cc1 |
| 0.276 µM and 0.884 µM | Clc1ccc(-c2csc(-c3ccncc3)n2)cc1Cl |
| 17.7 µM (inactive) | c1ccc(-c2csc(-c3cccnc3)n2)cc1 |
| 16.6 µM (inactive) | COc1ccc(-c2csc(-c3ccncc3)n2)cc1 |
| 28.8 µM (inactive) | COc1ccc(-c2csc(-c3ccccc3)n2)cc1 |

| IC50 | SMILES |
| --- | --- |
| > 64 µM (inactive) | COC(=O)c1ccc(-c2csc(-c3ccncc3)n2)cc1 |
| 1.49 µM | Clc1cccc(-c2csc(-c3ccncc3)n2)c1 |
| 1.59 µM and 0.869 µM | Clc1ccc(-c2csc(-c3ccccn3)n2)cc1 |
| 34.1 µM (inactive) | CCCc1cc(-c2nc(-c3ccc(C)cc3)cs2)ccn1 |
| 21.5 µM (inactive) | c1cc(-c2nc(-c3nccs3)cs2)ccn1 |
| > 64 µM (inactive) | COc1ccccc1-c1csc(-c2ccncc2)n1 |
| 1.34 µM and 1.92 µM | Clc1ccc(-c2csc(-c3ccncc3)n2)cc1 |
| 27.4 µM (inactive) | Cc1ccc(-c2csc(-c3ccccn3)n2)cc1 |
| 2.53 µM | Fc1ccc(-c2csc(-c3ccncc3)n2)cc1 |
| > 64 µM (inactive) | Fc1ccc(-c2csc(C3CCNCC3)n2)cc1 |
| > 64 µM (inactive) | c1cc(-c2nc(C3CC3)cs2)ccn1 |
| 30.1 µM (inactive) | Cc1cccc(-c2csc(-c3ccncc3)n2)c1 |
| 3.9 µM | FC(F)(F)c1ccc(-c2csc(-c3ccncc3)n2)cc1 |
| 14.6 µM (inactive) | Cc1ccccc1-c1csc(-c2ccncc2)n1 |
| 23.3 µM (inactive) | Fc1ccc(-c2csc(-c3ccccc3)n2)cc1 |
| 3.24 µM | Cc1sc(-c2ccncc2)nc1-c1ccc(Cl)cc1 |
| > 64 µM (inactive) | Cc1csc(-c2ccncc2)n1 |
| 2.1 µM | Clc1ccc(-c2csc(-c3ccccc3)n2)cc1 |
| > 64 µM (inactive) | Cc1ccc(-c2csc(-c3cccnc3)n2)cc1 |
| > 64 µM (inactive) | COc1ccc(-c2csc(C3CCNCC3)n2)cc1 |
| 13.4 µM (inactive) | COc1ccc(-c2csc(-c3cccnc3)n2)cc1 |
| > 64 µM (inactive) | Cc1ccc(-c2csc(C3CCNCC3)n2)cc1 |
| > 64 µM (inactive) | Cc1ccc(-c2csc(-c3ccccc3)n2)cc1 |
| > 64 µM (inactive) | CCCc1cc(-c2nc(-c3ccc(NS(C)(=O)=O)cc3)cs2)ccn1 |

Source: PubChem BioAssay AID743022 (Sanford-Burnham Center for Chemical Genomics, 2013)
